Laboratory results taken from EP0412814A2, “Pyridazinones having cardiotonic and beta blocking activity” (GLAXO WELLCOME INC., priority 1989, dated 1991).
Read-outs that look alike come from different tables or passages of the source.

Columns and labels:
[1] = system: rat aorta; test: Rat aorta protocol: relaxation of phenylephrine-contracted rat aorta rings (endothelium removed); details: percentage of maximal relaxation produced by nitroprusside (1 X 10⁻⁴ M), at the highest dose tested (100 micromolar), read-out: maximal response
Method: Such vasorelaxation appears to be related to inhibition of the phosphodiesterase (PDE) isozyme related to the cardiac sarcoplasmic reticulum. Thus, relaxation of rat aorta can be used as a screen to eliminate compounds which are not PDE inhibitors prior to testing for actual inotropic activity.
Rings of rat aorta (endothelium removed) were prepared for the measurement of isometric force in isolated tissue organ chambers essentially as previously described by T.J. Rimele et al in the Journal of Pharmacol. Exp. Ther. 245:102-111 (1988). The experimental portion of the protocol began with the addition of methylene blue (1 X 10⁻⁵ M) and propranolol (1 X 10⁻⁶ M) to each organ chamber to inhibit basal cGMP accumulation due to soluble guanylate cyclase and beta-adrenoceptors. Phenylephrine (1 X 10⁻⁷ M) was then added and the rings were allowed to obtain a stable contractile response after which time, the test compound was added in a cumulative fashion. The relaxation induced by each concentration of the test compound was expressed as a percentage of the maximal relaxation produced by nitroprusside (1 X 10⁻⁴ M). […] The IC₅₀ (concentration of test compound which produced a relaxation equivalent to 50% of the maximal relaxation induced by nitroprusside) was determined for each tissue. […]

[2] = target: T1, Beta-1 adrenoceptor (Rattus norvegicus, UniProt P18090); test: Beta adrenoceptor binding assay: [I-125]-Pindolol displacement from rat brain cortical membranes; details: IC₅₀ for displacement of [I-125]-Pindolol, 22°C, two hours, read-out: pIC₅₀ (converted)
T1 construct: rat brain cortices were used as the source of membrane vesicles; from tissue; host or cells: rat brain cortex membranes
T1 sequence (P18090 whole entry): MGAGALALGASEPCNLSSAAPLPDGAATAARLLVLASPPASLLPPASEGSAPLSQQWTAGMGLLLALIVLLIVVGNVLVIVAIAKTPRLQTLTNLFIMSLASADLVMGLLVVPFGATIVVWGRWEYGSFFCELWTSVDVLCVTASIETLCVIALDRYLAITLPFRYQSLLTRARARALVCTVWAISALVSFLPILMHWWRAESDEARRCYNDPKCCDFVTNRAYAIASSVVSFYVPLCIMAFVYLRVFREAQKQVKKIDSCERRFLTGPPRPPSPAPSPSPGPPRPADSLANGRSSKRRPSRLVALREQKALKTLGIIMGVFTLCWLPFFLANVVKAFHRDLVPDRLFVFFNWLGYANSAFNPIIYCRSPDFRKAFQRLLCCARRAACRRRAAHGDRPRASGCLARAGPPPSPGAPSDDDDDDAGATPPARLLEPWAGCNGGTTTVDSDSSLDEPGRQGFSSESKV
Method: Because of its receptor density rat brain cortices were used as the source of membrane vesicles to be used in the receptor binding assays. Freshly excised cortexes were homogenized in 20 volumes (w/v) 50 mM TRIS HCl Buffer (pH 7.5), with a glass/Teflon homogenizer following the procedure previously described by T.J. Rimele in J. Pharmacol. Exp. Ther. 239: 1-8, 1986. Beta-1 adrenoceptor binding activity was determined following methods described by M.H. Randall, et al, J. Med. Chem. 20: 1090-1094, 1977, and J. Homberger, et al in Mol. Pharmacol. 20: 453-469, 1981. The incubation mixture consisted of; 26 microliters of 50 mM TRIS/HCl, 10 mM MgCl₂ pH 7.6 buffer, 25 microliters of test drug or 10-6 pindolol to define nonspecific binding, 100 microliters of [I-125]-Pindolol (2200 Ci/mM) at a final concentration of 10-9, and 100 microliters of brain cortical membranes. […] The radioactivity in each filter containing the trapped membrane particles was counted with a gamma counter. […] All specific binding values obtained in the presence of test compounds were expressed as the percentage of specific binding displaced by the individual agents. The resultant values were plotted on a log plot of concentration of test compound vs. percentage of displacement and an IC₅₀ value (drug concentration which produces 50% displacement) determined. […]

[3] = system: barbiturate-anesthetized dogs; test: Anesthetized dog: inotropic effect (dP/dt) and inhibition of the isoproterenol response; type: in vivo; details: for ED50: Canis lupus familiaris, iv, i.v. infusion, cumulative dose
Method: Inotropic effects were evaluated in barbiturate-anesthetized dogs by differentiating left intraventricular pressure. This procedure was carried out essentially as described by M.K. Grizzel et al in the FASEB Journal, Vol. 3, page 1039, abstract 4728 (1989). Purpose breed mongrel dogs (14-20 kg) of either sex were anesthetized with a mixture of sodium pentobarbital (15 mg/kg) and sodium barbital (300 mg/kg) i.v., intubated with a cuffed endotracheal tube and ventilated with a respirator (Harvard Apparatus, model 613, South Natick, MA) with room air (22 rpm,10-12 ml/kg/stroke). A 5F pressure transducer (Millar Instruments, Mikkro-tip Houston, TX) was inserted through the right carotid artery into the left ventricle to monitor intraventricular pressure. The left ventricular pressure signal was differentiated (using a 100 Hz low pass differential amplifier, Gould Inc., Cleveland, OH) to obtain its maximal rate of rise (+dP/dt), and used to trigger a biotach amplifier to record heart rate. Cardiac output was determined via thermodilution with a Spectramed computer (Starcom, Oxnard, CA) and a 5F Swan Ganz catheter which was inserted into the right jugular vein and positioned in the pulmonary artery. The femoral artery was cannulated for monitoring arterial blood pressure with a pressure transducer (Micron model MP15D, Simi Valley, CA). A lead II electrocardiogram was measured using subcutaneous electrodes. […] Rectal temperature was monitored and maintained at 37-38°C with a heating pad (Baxter Health Care model K20, McGaw Park, IL). All variables were recorded using a Gould 3800S physiograph.
Isoproterenol ([…]) was injected i.v. into the cephalic vein at 10 min intervals except for when the test drug infusion was begun. […] Inhibition of the isoproterenol responses on contractility (dP/dt), heart rate and diastolic blood pressure were determined at each dose of test compound. The inotropic effect of each compound was determined by comparing the level of dP/dt at the end of each 10 min period to that of the level of dP/dt just prior to the infusion of test compound. […]

[4] = system: guinea-pigs left atria; test: Guinea pig left atria test: force of atrial contraction; details: Cavia porcellus
Description: Male Hartley guinea-pigs (300-400 grams) were sacrificed by cervical dislocation or carbon dioxide asphyxiation. The hearts were immediately removed and placed in oxygenated Krebs-Henseleit buffer (composition (millimolar): Na⁺ 143, K⁺ 5.9, Ca⁺⁺ 1.25, Mg⁺⁺ 1.2, Cl⁻ 128, HCO₃⁻ 25, SO₄⁻⁻ 1.2, H₂PO₄⁻ 1.0, and D-glucose 10). Left atria were dissected away from the remainder of the heart and mounted on holders against platinum punctate electrodes. The mounted atria were placed in tissue baths maintained at 31°C and oxygenated with 95% 0₂-5% CO₂ under 1.0 gram resting tension. The atria were stimulated through the punctate electrode and an external platimum electrode at the threshold voltage plus thirty percent, one Hertz frequency and five to ten milliseconds duration. Contractions were detected with a force displacement transducer and recorded on a physiograph. […]
Direct effects of the test compounds on the force of atrial contraction were observed and recorded after addition of the compounds to the tissue bath. […] Responses to the test compounds and forskolin were expressed as a percentage of the maximal response to forskolin. EC₅₀ values for the test compounds were calculated as the concentration of the compound neceesary to produce an inotropic response half that of the maximal response produced by the test compound. […]

IC50 [2]: 0.0269 µM
EC50 ([4]; concentration producing an inotropic response half that of the maximal response produced by the test compound, read-out: ED₅₀): 9 µM
SMILES: O=C(COc1ccc(C2=NNC(=O)CC2)cc1Cl)NCCNC[C@H](O)COc1ccccc1 [Example 19, 6-{4-[N-[2-[3-phenoxy-2-hydroxypropylamino]ethyl]carbamoylmethoxy]-3-chlorophenyl}-4,5-dihydro-3(2H)-pyridazinone]
Emax at 100 µM [1]: 100%
ED50 ([3]; 50% increase in dP/dt compared to a baseline established prior to drug infusion, read-out: inotropic ED₅₀): 0.114 µmol/kg
ED50 ([3]; 50% inhibition of the dP/dt response to isoproterenol, read-out: ED₅₀ for inhibition of the isoproterenol response): 0.469 µmol/kg
inotropic effects with atenolol ([3]; whether the inotropic effects are blocked by atenolol): not blocked by atenolol
Emax at 100 µM ([4]; percentage of the maximal response to forskolin, at 100 micromolar, propranolol and phentolamine (1.0 micromolar) present): 83%
